“Also recorded” adds a separate entry of the source.
Tests used:
soluble VCAM = assay: Soluble VCAM ELISA in serum of 4T1 tumor bearing mice; conditions: 4T1 breast tumors
α5 integrin = assay: Western blot analysis of HUVECs, α5 integrin; conditions: 100 nM, lysates at 0, 16 and 24 hours
soluble ICAM = assay: Soluble ICAM ELISA in serum of 4T1 tumor bearing mice; conditions: 4T1 breast tumors
αv integrin = assay: Western blot analysis of HUVECs, αv integrin; conditions: 100 nM; lysates at 0, 16 and 24 hours
VCAM = assay: Western blot analysis of HUVECs, VCAM; conditions: 100 nM, lysates at 0, 16 and 24 hours
VEGF-A = VEGF-A ELISA in KM12L4a tumor lysates; assay type: in vivo, mouse; conditions: 100 mg/kg for 7 days; KM12L4a tumors in Nu/nu mice; listed as 4-amino-5-fluoro-3-[6-(4-methylpiperazin-1-yl)-1H-benzimidazol-2-yl]quinolin-2(1)
Source text: […]. Tumor cells (2×10^6 KM12L4a) were implanted subcutaneous into the flank of mice and allowed to grow to the desired size before treatment was initiated. […] The tumors were resected and flash frozen in liquid nitrogen.
VEGF-A protein levels in KM12L4a tumor lysates were quantified using a commercially available ELISA kit (R and D Systems, Minneapolis, Minn.) according to the manufacturer's procedures.

4T1 breast tumor cells = assay: 4T1 spontaneously metastatic mouse breast tumor model: subcutaneous tumor growth, liver and lung metastases; assay type: in vivo
MMP-9 = assay: Zymography for MMP-9 activity in KM12L4a human colon xenografts; assay type: in vivo, mouse; conditions: 100 mg/kg for 7 days; KM12L4a tumors in Nu/nu mice; listed as 4-amino-5-fluoro-3-[6-(4-methylpiperazin-1-yl)-1H-benzimidazol-2-yl]quinolin-2(1)
Experimental: Female Nu/nu mice (6-8 weeks old, 18-22 grams) were obtained from Charles River Laboratories (Wilmington, Mass.). Tumor cells (2×10^6 KM12L4a) were implanted subcutaneous into the flank of mice and allowed to grow to the desired size before treatment was initiated. […] The tumors were resected and flash frozen in liquid nitrogen.
After electrophoresis, gels were washed twice for 15 minutes in 2.5% Triton X-100, incubated overnight at 37° C. in 50 mM Tris-HCl and 10 mM CaCl2, pH 7.6, and stained with 0.5% Comassie Blue and destained with 50% methanol.

[1] = test system: KM12L4a human colon tumors; assay: Antibody immunohistochemistry staining of KM12L4a human colon tumors (Ki67, PARP, caspase-3, CD31); assay type: in vivo, mouse; conditions: 100 mg/kg for 7 days
ICAM = assay: Western blot analysis of HUVECs, ICAM; conditions: 100 nM, lysates at 0, 16 and 24 hours
[2] = 100 or 150 mg/kg orally, daily for 18 days
[3] = varying amounts (10-150 mg/kg), 18 days
[4] = listed as 4-amino-5-fluoro-3-[6-(4-methylpiperazin-1-yl)-1H-benzimidazol-2-yl]quinolin-2(1)
[5] = 10 mpk orally, daily for 18 days
[6] = 30 mpk orally, daily for 18 days
[7] = 60 mpk orally, daily for 18 days
[8] = 100 mpk orally, daily for 18 days
[9] = 150 mpk orally, daily for 18 days
[10] = orally, daily, after 18 days of dosing, BALB/C mice

In the case of CN1CCN(c2ccc3nc(-c4c(N)c5c(F)cccc5[nH]c4=O)[nH]c3c2)CC1 [Compound 1], the “inhibition of soluble VCAM in serum” value (soluble VCAM; [2]) is reported as 44-47%, the “soluble VCAM in serum, effect in words” value (soluble VCAM; [3]) is reported as “dose-dependent reduction” and the “expression of α5 integrin in HUVECs” value (α5 integrin) is reported as “decreased”. The “expression of α5 integrin in HUVECs” value (α5 integrin; [4]) was “decrease”, the “inhibition of soluble ICAM in serum” value (soluble ICAM; [2]) was “greater than 70%” and the “soluble ICAM in serum, effect in words” value (soluble ICAM; [3]) was “dose-dependent reduction”. The “expression of αv integrin in HUVECs” value (αv integrin) was “not αν integrin”, the “expression of VCAM in HUVECs” value (VCAM) was “decreased” and the “expression of VCAM in HUVECs” value (VCAM; [4]) was “decrease”. For the same compound, the “VEGF production in tumors (ELISA)” value (VEGF-A) was “reduced VEGF production; also recorded: decrease”, the “growth of the subcutaneous tumor inhibited compared to control” value (4T1 breast tumor cells; 10-150 mg/kg orally, daily for 18 days, BALB/C mice) was 40-80% and the “# of Liver Metastases Mean +/− SD” value (4T1 breast tumor cells; [5]) was 22.0 +/− 32.3. The “Liver Metastases: Incidence of Metastases” value (from here on “Liver Metastases: Incidence”) (4T1 breast tumor cells; [5]) was 7/8, the “# of Liver Metastases Mean +/− SD” value (4T1 breast tumor cells; [6]) was 3.1 +/− 3.5 and the “Liver Metastases: Incidence” value (4T1 breast tumor cells; [6]) was 6/10. For the same compound, the “# of Liver Metastases Mean +/− SD” value (4T1 breast tumor cells; [7]) was 0.7 +/− 0.9, the “Liver Metastases: Incidence” value (4T1 breast tumor cells; [7]) was 5/10 and the “# of Liver Metastases Mean +/− SD” value (4T1 breast tumor cells; [8]) was 4.1 +/− 13.0. For the same compound, the “Liver Metastases: Incidence” value (4T1 breast tumor cells; [8]) was 1/10, the “# of Liver Metastases Mean +/− SD” value (4T1 breast tumor cells; [9]) was 0.0 +/− 0.0 and the “Liver Metastases: Incidence” value (4T1 breast tumor cells; [9]) was 0/9. For the same compound, the liver metastases inhibition (4T1 breast tumor cells; [10]) was “completely inhibited”, the lung metastases inhibited (4T1 breast tumor cells; [10]) was 60-97% and the “MMP-9 activity in tumors (zymography)” value (MMP-9) was “decreased MMP-9 activity; also recorded: decrease”. The “apoptosis (PARP cleavage and caspase-3)” value [1] was “induced apoptosis”, the “tumor cell proliferation (Ki67)” value [1] was “decreased tumor cell proliferation” and the “vascular density (CD31)” value [1] was “reduced vascular density”. For the same compound, the “expression of ICAM in HUVECs” value (ICAM) was “decreased” and the “expression of ICAM in HUVECs” value (ICAM; [4]) was “decrease”.

From patent US7875624B2, “Modulating and measuring cellular adhesion” (Novartis Vaccines and Diagnostics, Inc., priority 2004, dated 2011)
